The text below walks through data of paper PMC7037731, “Synthesis, Anticancer Activity, and Preliminary Pharmacokinetic Evaluation of 4,4-Disubstituted Curcuminoid 2,2-bis(Hydroxymethyl)Propionate Derivatives” (Molecules, 2020).

Converted amounts (≈) assume the structure as drawn.

Series [1] concerns HCT-116. Nature of the series: MTT anti-proliferative assay, HCT-116. Format: cell-based. Particulars: Homo sapiens, 48 h treatment, MTT, mean ± SD of at least three experiments, read-out: IC50 (M)/ 48 h HCT-116. The method, then: (§1) These compounds, along with all newly synthesized compounds, were screened for anti-proliferative activity against the same TNBC and colon cancer cell lines.
(§2) Cell viability was evaluated by measuring the reduction in MTT to yield blue formazan. Cells were cultured in 96-well plates, allowed to attach overnight, and then treated with compounds. After treatment, MTT solution (1 mg/mL) was added to each well, and plates were incubated for another 2 h. Medium was removed, blue formazan was dissolved in DMSO, and the absorbance was read at 570 nm by Multiskan Go spectrophotometer (Thermo Scientific, Madison, WI, USA).

Series [2] has as its system MDA-MB-231. Description: MTT anti-proliferative assay, MDA-MB-231. As to conditions: Homo sapiens, 48 h treatment, MTT, mean ± SD of at least three experiments, read-out: IC50 (M)/ 48 h MDA-MB-231. The class given is cell-based. As to the method: as §1, §2
The nature of series [3]: Chemical stability on storage. Format: physicochemical. Particulars: storage at 4 °C; DMSO-d6 1 week at room temperature. The source says: The low stability of 9 may have been due to self- or cross-hydrolysis, such that the two hydroxyl groups at the C-4 alkyl chains cleaved the ester linkage of the 2,2-bis(hydroxymethyl)propionate group. […] Therefore, we modified the hydroxymethyl group of 9 and were able to produce compounds 10 and 11. To prepare 10, compound 9 was acetylated with acetyl chloride in the presence of Et3N, and the resulting di-acetylation intermediate was hydrolyzed by hydrochloric acid. Compound 11 was obtained with an overall yield of 5% following a similar three-step reaction modified for methylation. The stability of these two products at room temperature may have been due to the conversion of the labile hydroxyl groups of the C-4 alkyl chains of 10 and 11 into non-nucleophilic […] groups, respectively, which prevented degradation.

Series [4] is described as follows: Preliminary pharmacokinetic evaluation of 2 in rat (LC-MS of serum). As to conditions: for time of maximum blood content: LC signal in serum. The class given is in vivo, Sprague-Dawley rats. The method, then: Male Sparague-Dawley rat (420 g) from National Laboratory Animal Center, Taipei, Taiwan were maintained under the regulations of the Institutional Animal Care and Use Committee of the National Health Research Institutes, Taiwan. The animal studies were supervised under the Institutional Animal Care and Use Committee, China Medical University, Taichung, Taiwan with a protocol number ([…]-2018-278). Rat was fasted for 16 h before dosing. Compound 2 was dissolved in aqueous solution (5% ethanol and 10% Tween80 in 85% saline) and administrated via oral gavage at a dosage of 100 mg/kg. Blood samples were collected at selected time points (5, 10, 20, 30, 60, 120, 240, 360, 480 min) post dose and centrifuged at 10,000× g for 15 min to provide serum samples, which were stored at −80 °C until subsequent sample extraction.
Methods for the preparation of 2, 2m, 18, 19, 20 and 21 serum sample are delineated as follows. 50 μL of acetate buffer (pH 5.0), 50 μL of ascorbic acid (200 mg/mL), and 50 μL of 0.1 N HCl solution was added into 100 μL of serum which was collected at different time points). The resulting mixture was partitioned with 250 μL of ethyl acetate (containing 5.0 μg/mL of butyl paraben as the internal standard). After centrifuging at 10,000× g for 15 min, the upper organic layer was separated and dried under nitrogen gas to provide the crude sample, which was diluted with an appropriate volume of acetonitrile for LC-MS analysis.
The amount of 22 and 23 were analyzed by the serum samples before and after treatment with enzyme solution. The procedure for enzyme treatment is shown as follows. 100 μL of serum was treated with enzyme solution (50 μL; containing 1000 units/mL of sulfatase and 39861 units/mL of β-glucuronidase in pH 5.0 acetate buffer), 50 μL of 0.1 N HCl solution and 50 μL of ascorbic acid (200 mg/mL) in the light protected tubes at 37 °C. For optimal hydrolysis efficiency, the incubation time was decided as 2 h based on a previous study. The mixture was then partitioned with 250 μL of ethyl acetate (containing 5.0 μg/mL of butyl paraben as the internal standard). After centrifuging at 10,000× g for 15 min, the upper organic layer was separated and dried under nitrogen gas to provide the crude sample, which was diluted with an appropriate volume of acetonitrile for LC analysis.
All samples obtained from in vivo pharmacokinetic studies were assayed using LC-MS for the analysis of 2 and the corresponding metabolites. The Waters ACQUITY UPLC I-Class system (Waters Corp., Milford, MA, USA) was utilized. System control and all of the mass spectrometry data were acquired and analyzed using UNIFI software (Waters Corp.). For sample separation, the LC was equipped with an Inertsil ph-3 (50 × 2.1 mm, 2 μm particle size) RPLC column (GL Sciences Inc. Tokyo, Japan) in which the column temperature was held at 35 °C, injection volume was 7.5 μL, and the flow rate of the mobile phase was 200 μL/min. The elution started from 50% mobile phase A (ultrapure water + 0.1% formic acid) and 50% mobile phase B (100% methanol + 0.1% formic acid), held at 50% B for 0.5 min, raised to 95% B in 5.5 min, held at 95% B for 1 min, and then lowered to 50% B in 1 min. Before sample injection, the column was equilibrated by pumping 50% B for 4 min. The analysis of target compounds for all samples was performed by using a Waters Vion IMS QTof mass spectrometer. Data were acquired in the electrospray ionization (ESI) positive ion MS^E mode with range of m/z 100–1000 and 0.5 s scan time. Parameters were set as capillary voltage of 2.5 kV, source temperature of 100 °C, desolvation temperature at 250 °C, cone gas maintained at 10 L/h, desolvation gas maintained at 600 L/h. The acquired m/z and isotope pattern were processed by UNIFI software to illustrate chromatogram, and the amounts of compound was calculated with the integrated peak area of signals.

In series [5] the test system is MDA-MB-231. As to conditions: MDA-MB-231 in vitro and in vivo; cited from earlier work.
A short description of series [6]: Solubility in aqueous dosing vehicle. Format: physicochemical. Particulars: aqueous with cosolvent or surfactant or cyclodextrin, 5% ethanol, 10% Tween 80, 85% saline, read-out: maximum solubility in aqueous vehicle. The source says: Subsequently, the latter would be converted into glucuronide 22 and sulfate 23 through the phase II metabolism conjugation of hydrogenated products 18, 19, 20, and 21 via the phase I metabolic pathway (Scheme 6). To verify our assumptions, the preliminary pharmacokinetic evaluation of 2 was executed.

A short description of series [7]: Visible signs of toxicity and behavioral changes in xenograft mice. Format: in vivo. As to conditions: 50, 100, 150 mg/kg p.o. daily, 30 days, vs control groups. The method, then: (§3) The therapeutic effect of 2 was evaluated on HCT-116 colon tumor xenograft bearing nude mice. The oral administration of 2 at doses of 50, 100, or 150 mg/kg bw per day were performed after tumors reached approximately 100 mm^3 and continued for 30 consecutive days. 5-Fluorouracil treatment (30 mg/kg bw, i.p., QOD) was used as a positive control. […] There was a clear dose- and time-dependent inhibitory effect on tumor size in the other two groups, in which at 50 and 150 mg/kg doses the volume of the HCT-116 colon tumor was reduced to 73% and 40% of the control, respectively (Figure 2). The body weight of the mice was recorded prior to dosing every 3 d, and the average body weight of each group is depicted in Figure 3. Otherwise, they were monitored for visible signs of toxicity and behavioral changes 1 h after each administration.
Male nu/nu mice (5 weeks old) from National Laboratory Animal Center (Taipei, Taiwan) were maintained under the procedures and guidelines provided by the Institutional Animal Care and Use Committee of the National Health Research Institutes (Taipei, Taiwan). […] Tumor size and mouse body weight were measured once every 3 days, and tumor volume (mm^3) was calculated using the equation: length × (width)^2 × 0.5. […]

In series [8] the test system is HCT-116 colon tumor xenograft. Description: In vivo antitumor activity, HCT-116 colon tumor xenograft bearing nude mice. Further details: species or system nu/nu mice. Particulars: 30 days. As to the method: as §3
Male nu/nu mice (5 weeks old) from National Laboratory Animal Center (Taipei, Taiwan) were maintained under the procedures and guidelines provided by the Institutional Animal Care and Use Committee of the National Health Research Institutes (Taipei, Taiwan). All experiments were supervised under the Institutional Animal Care and Use Committee, China Medical University, Taichung, Taiwan with a protocol number ([…]-2018-278). HCT-116 colon cancer cells (5 × 10^6 cells per mouse) were suspended in 0.1 mL of Matrigel solution (50% v/v Matrigel in PBS) and inoculated into the mammary fat pads of the mice. When the tumor size reached 100 mm^3, the tumor-bearing mice were randomly divided into four groups for treating with vehicle (5% ethanol and 10% tween 80 in 85% saline, 0.1 mL) and 2 (p.o. 50, 100 and 150 mg/kg/day body weight) respectively. Compounds was administered via oral route daily for 30 days. 5-Fluorouracil-treated group (i.p. 30 mg/kg) is the positive control. Tumor size and mouse body weight were measured once every 3 days, and tumor volume (mm^3) was calculated using the equation: length × (width)^2 × 0.5. At the end of experiments, mice were sacrificed.

`COc1cc(/C=C/C(=O)C(CO)(CO)C(=O)/C=C/c2ccc(OC(=O)C(C)(CO)CO)c(OC)c2)ccc1OC(=O)C(C)(CO)CO` [Compound 9, [(1E,6E)-4,4-bis(Hydroxymethyl)-3,5-dioxohepta-1,6-diene-1,7-diyl]bis(2-methoxy-4,1-phenylene) bis[3-hydroxy-2-(hydroxymethyl)-2-methylpropanoate]]: the IC50 in series [1] and in [2] was greater than 0.0001 M in each case. Further, the “chemical stability” value in series [3] is “unstable”.
In the case of `COc1cc(/C=C/C(=O)C(C)(C)C(=O)/C=C/c2ccc(O)c(OC)c2)ccc1O` [Compound 2m, (1E,6E)-1,7-bis(4-Hydroxy-3-methoxyphenyl)-4,4-dimethylhepta-1,6-diene-3,5-dione], the melting point is 104 to 106 °C. For the same compound, in [1], the IC50 is 2.17e-06 ± 1.6e-07 M. Moreover, the IC50 in series [2] came out at 4.17e-06 ± 1.5e-07 M. Further, in series [4] (after oral 2 at 100 mg/kg), the “time from which the metabolite emerged in blood” value was 10 min and the “time of maximum blood content” value amounted to 120 min.
`COc1cc(/C=C/C(=O)/C=C(O)/C=C/c2ccc(OC(=O)C(C)(CO)CO)c(OC)c2)ccc1OC(=O)C(C)(CO)CO` [Compound 1, curcumin di-O-2,2-bis(hydroxymethyl)propionate]: the IC50 in [1] is 6.25e-06 ± 6e-07 M; in series [2], 3.06e-06 ± 1.8e-07 M. Moreover, the “potency relative to curcumin (times)” value in [5] is on record as 8 to 10.
Consider `COc1cc(/C=C/C(=O)C(C)(C)C(=O)/C=C/c2ccc(OC(=O)C(C)(CO)CO)c(OC)c2)ccc1OC(=O)C(C)(CO)CO` [Compound 2], for which the IC50 in series [1] is 3.1e-06 ± 2.9e-07 M; in series [2] it was 2.25e-06 ± 1e-07 M. The solubility in [6] is roughly 200 mg/mL (≈ 318 mM). For the same compound, in [7], the “adverse effects (visible signs of toxicity, behavioral changes)” value was “No obvious adverse effects”. The “tumor volume as % of the control” value is 73% in [8] (50 mg/kg p.o. daily) and 40% in series [8] (150 mg/kg p.o. daily). The tumor volume reduction in series [8] (50 mg/kg p.o. daily, vs control) worked out at 27%; in [8] (150 mg/kg p.o. daily, vs control), 60%. Further, in series [8] (100 mg/kg p.o. daily, vs control), the “tumor volume reduction / tumor inhibition ratio” value came out at 45%. For the same compound, the “time of second highest blood content” value in [4] (after oral 2 at 100 mg/kg) worked out at 120 min. Further, the “time of third highest blood content” value in [4] (after oral 2 at 100 mg/kg) worked out at 360 min. The “time of maximum blood content” value in series [4] (after oral 2 at 100 mg/kg) came out at 20 min. The “plasma stability compared to curcumin” value in series [4] (oral 100 mg/kg) was “superior plasma stability”.
